# In patent US20140162974A1, “METHODS FOR MODULATION OF PHOSPHORUS AND FGF23” (Luitpold Pharmaceuticals, Inc., priority 2012, published 2014):
# Assays:
# [1] = test system: FGF-23; experiment: VIT-30: FGF-23; format: in vivo, human
# Source text: FIG. 1 is a line and scatter plot showing mean changes in phosphate (left vertical axis) or changes in FGF-23 (right vertical axis) with respect to baseline value at each study day (0, 7, 14, 28, or 56) as indicated on the Horizontal (X) axis for trial VIT30. […] Further details regarding methodology are provided in Example 2.
# (§1) Study visits were on Days 0, 3, 7, 10, 14, 28, 56, and 120. A phone assessment occurred on Day 90.
# For quantitative baseline characteristics, the association with FGF-23 at Screening was evaluated with Pearson product moment and Spearman correlations. For qualitative baseline characteristics, the association with FGF-23 at Screening was evaluated with mean differences in FGF-23 among categories of the baseline characteristic.
# Descriptive statistics for FGF-23 at Screening (mean, median, standard deviation, quartiles, minimum, and maximum) were summarized for subgroups.
# [2] = Single-dose toxicity studies; format: in vivo, rodents and dogs
# [3] = test system: serum phosphate; conditions: previous studies (2-10); cited from earlier work
# [4] = test system: hemoglobin, ferritin, TSAT; experiment: VIT-30 efficacy: hemoglobin and iron indices; format: in vivo, human
# Method: as §1
# (§2) The Venofer Group received 5 doses of Venofer, 200 mg for a total dose of 1,000 mg.
# (§3) For Venofer, subjects received, as an IV push injection over 2 to 5 minutes, 200 mg on Days 0, 7, and 14 with 2 additional doses given: 1 between Days 0 and 7 and the other between Days 7 and 14 (i.e., for a total of 5 doses [1,000 mg]).
# For efficacy, the primary efficacy measure was the mean change from baseline to the highest observed hemoglobin any time between baseline and end of treatment period (Day 56) or time of intervention. Supportive efficacy measures included the following: (a) proportion of subjects achieving an increase in hemoglobin of ≧1 g/dL any time between baseline and end of treatment period (Day 56) or time of intervention; (b) mean change from baseline to the highest observed ferritin any time between baseline and treatment period (Day 56) or time of intervention; (c) mean change from baseline to the highest observed TSAT any time between baseline and treatment period (Day 56) or time of intervention; and (d) mean change from baseline to the pre-dosing value on Day 7 for hemoglobin, ferritin, and TSAT.
# The hemoglobin baseline was defined as the average of the last 2 hemoglobin values from the central laboratory prior to the first dose of study drug. If only 1 centrally-measured hemoglobin value was available prior to the first dose of study drug, the single value was used for baseline. Non-inferiority was concluded if the lower limit of the 2-sided CI was ≧−0.075. This non-inferiority margin preserved >50% of the difference from oral iron observed previously.
# The mean change from baseline to highest TSAT and ferritin was assessed for treatment group differences with the 95% 2-sided CI (based on normal distribution, assuming equal variances). Mean change from baseline to each scheduled visit was similarly assessed for hemoglobin, TSAT, ferritin, serum iron, total iron binding capacity, and unsaturated iron binding capacity. Baseline was calculated as described above. Assessments were assigned to scheduled visits as follows (if the assessment was on a dosing day for IV iron, the assessment before dosing was selected): • Day 7: Assessments on Days 4 through 10. • Day 14: Assessments on Days 11 through 21. • Day 28: Assessments on Days 22 through 35. • Day 56: Assessments on Days 50 through 63.
# [5] = test system: phosphate; experiment: Prior studies 1VIT04002/1VIT04003: phosphate change after FCM; format: in vivo, human; conditions: iron deficiency anemia secondary to heavy uterine bleeding; measured at baseline and days 7, 14, 28, 42; N=228
# [6] = VIT-30 safety: composite cardiovascular endpoint and adverse events; format: in vivo
# Method: as §1, §2, §3
# For safety, the primary measure was the proportion of subjects experiencing treatment-emergent adverse event included in the primary composite safety endpoint. Treatment-emergent events included events that started on or after the first dose of randomized treatment. The composite safety endpoint included: deaths due to any cause; nonfatal myocardial infarction; nonfatal stroke; unstable angina requiring hospitalization; congestive heart failure requiring hospitalization or medical intervention; arrhythmias; protocol-defined hypertensive events; and protocol-defined hypotensive events. These events were adjudicated in a blinded fashion. Supportive safety measures included: proportion of subjects who died (all cause mortality); time to first event comprising the primary composite safety endpoint; proportion of subjects reporting treatment-emergent adverse events, overall and related; proportion of subjects reporting treatment-emergent serious adverse events, overall and related; incidence of treatment-emergent potentially clinically significant (PCS) clinical laboratory values; and incidence of treatment-emergent PCS vital sign values.
# The Safety Population consisted of all subjects who received a dose of randomized treatment. All safety analyses were performed with the Safety Population.
# Safety assessments were summarized for the Safety Population unless stated otherwise. Subjects were analyzed under the treatment actually received.
# The precision of the estimated treatment group difference was measured by the width of the 95% CI.
# The number and percent of subjects who reported treatment-emergent adverse events were summarized for each treatment group. A treatment-emergent adverse event was an event that began after receipt of randomized treatment.
# The adverse event profile was characterized with severity (as graded by Version 3.0 of the NCI CTCAE) and relationship (unrelated and related) to study drug. Related adverse events were events that were possibly or probably related to treatment in the Investigator's judgment. Events with unknown severity or relationship were counted as unknown.
# The number and percent of subjects who reported treatment-emergent serious adverse events were similarly summarized for each treatment group. The number and percent of subjects who reported treatment-emergent adverse events resulting in discontinuation of study drug were similarly summarized for each treatment group.
# Time to the first adverse event comprising the primary composite safety endpoint was summarized with the Kaplan-Meier approach. […] The log-rank statistic were used to compare time-to-event curves between treatment groups and a 95% CI of the hazard ratio was calculated with a Cox proportional hazards model.
# [7] = in vivo, cited from earlier work
# [8] = Acute toxicity relative to iron sucrose; conditions: in vivo
# Source text: FCM can mimic physiologically occurring ferritin. FCM is metabolized by the glycolytic pathway.
substance,measurement,setting,value
"polynuclear iron (III)-hydroxide 4(R)-(poly-(1→4)-O-α-glucopyranosyl)-oxy-2(R),3(S),5(R),6-tetrahydroxy-hexanoate [FCM]",changes in FGF-23 with respect to baseline (FIG. 1),"[1]; Days 7, 14, 28, 56, trial VIT30",almost always decreases with respect to baseline (except for FCM on Day 14)
same,FGF 23 change from baseline to Day 56 within group,[1]; in vivo,statistically significant decrease
same,"safe and tolerated single intravenous dose, as multiple of the equivalent of 1,000 mg iron once weekly in humans",[2],up to 60 times
same,occurrence of transient reductions in serum phosphate levels,[3],up to 60%
same,"proportion of subjects with an increase in hemoglobin ≧1.0 g/dL, FCM compared with Venofer",[4]; anytime between baseline and Day 56 or time of intervention,statistically significantly greater
same,"mean increases in ferritin, TSAT, serum iron and mean decreases in TIBC and unsaturated IBC, FCM compared with Venofer",[4]; baseline to highest value between baseline and Day 56 or time of intervention,statistically significantly greater
same,"mean increase in hemoglobin from baseline to highest value, FCM compared with Venofer",[4]; between baseline and Day 56 or time of intervention,statistically significantly greater
same,"noninferiority test on mean increase in hemoglobin, FCM to Venofer",[4]; lower limit of 2-sided 95% CI ≧−0.2,noninferiority
same,"noninferiority test on proportion with hemoglobin increase ≧1.0 g/dL, FCM to Venofer","[4]; overall population, 2-sided 95% CI",noninferiority
same,mean change in phosphate,[5],1.9 mg/dL
same,tolerability,[6]; 2 injections of 750 mg,well tolerated
same,subjects who discontinued the study or study drug subsequent to a protocol-defined hypertensive event,[6]; 10 subjects,10.5%
same,hazard ratio (FCM versus Venofer) excluding protocol-defined hypertensive and hypotensive events,[6]; Cox proportional hazards,1.017
same,"hazard ratio (FCM versus Venofer) for death due to any cause, nonfatal myocardial infarction, or nonfatal stroke",[6]; Cox proportional hazards,0.685
same,protocol-defined hypertensive events,[6]; component of primary composite safety endpoint,7.45%
same,drug related treatment emergent adverse event: dizziness,[6]; in vivo,2.4%
same,drug related treatment emergent adverse event: flushing,[6]; in vivo,3.0%
same,drug related treatment emergent adverse event: hypertension,[6]; in vivo,4.6%
same,drug related treatment emergent adverse event: nausea,[6]; in vivo,8.6%
same,drug related treatment emergent adverse event: vomiting,[6]; in vivo,2.0%
same,serious adverse event: cardiac failure congestive,[6]; in vivo,2.4%
same,subjects prematurely discontinued from study drug due to adverse events,[6]; in vivo,2.6%
same,subjects with Grade 3 treatment emergent adverse events,[6]; in vivo,12.9%
same,subjects with Grade 4 treatment emergent adverse events,[6]; in vivo,4.7%
same,subjects with Grade 5 (fatal) treatment emergent adverse events,[6]; in vivo,1.2%
same,"subjects with adjudicated events of death due to any cause, nonfatal myocardial infarction, or nonfatal stroke",[6]; in vivo,1.88%
same,subjects with adverse event that resulted in discontinuation from the study,[6]; in vivo,2.4%
same,subjects with at least 1 serious adverse event,[6]; in vivo,15.8%
same,subjects with at least 1 treatment emergent adverse event,[6]; in vivo,65.4%
same,treatment emergent adverse event: hypertension,[6]; in vivo,10.7%
same,treatment emergent adverse event: nausea,[6]; in vivo,13.5%
same,subjects with at least 1 drug related treatment emergent adverse event,[6]; possibly or probably related,23.4%
same,tissue distribution after intravenous administration,[7]; iv,"mainly found in the liver, spleen, and bone marrow"
same,projected calculated terminal half-life (t1/2),[7],approximately 16 hours
same,acute toxicity relative to iron sucrose,[8],one-fifth
